# pIC50: −log10 of the molar value.
# What was measured:
# [1] = tested on: trachea; assay: Tracheal expansion activity against acetyl choline (ACh) induced tracheal contraction; set-up: species or system Hartley guinea pig; conditions: for pIC50: Cavia porcellus, ACh 1×10^-6 M, read-out: 50% Contraction-inhibitive Concentration, ACh Contraction; for Ratio of Effectiveness, ACh Contraction: reverse ratio of 50% contraction-inhibitive concentration to that of theophylline
# Source text: (§6) Tracheal expansion activity against tracheal contraction induced by acetyl choline (ACh) and histamine (His)
# (§7) A Hartley guinea pigs (male, weight: 400-500 g) was killed by bleeding and its trachea was immediately extracted. […] Static tensions was isometrically measured.
# [2] = tested on: trachea; assay: Tracheal expansion activity against histamine (His) induced tracheal contraction; set-up: species or system Hartley guinea pig; conditions: for pIC50: Cavia porcellus, His 1×10^-6 M, read-out: 50% Contraction-inhibitive Concentration, His Contraction; for Ratio of Effectiveness, His Contraction: reverse ratio of 50% contraction-inhibitive concentration to that of theophylline
# Source text: as §6, §7
# [3] = tested on: basilar artery; assay: Vasodilative activity, Magnus method, dog basilar artery contracted with potassium chloride; conditions: Canis lupus familiaris; 60 mM potassium chloride; read-out: 50% Contraction-inhibitive Concentrations, Basilar Artery, KCl
# Protocol: (§1) A bastard, male, adult dog weighing about 8-10 kg was anesthetized with pentobarbital sodium (25 mg/kg, i.v.) and killed by bleeding. Its basilar and coronary arteries were immediately extracted. […] Static tensions of the ring were isometrically measured and recorded.
# (§2) Test compounds were accumulatively given to specimens contracted with 1×10^-7 M (final concentration) U-46619 to the final concentration of 1×10^-7 to 1×10^-4 M to investigate their vasodilative activities.
# (§3) The vasodilative activity and coronary blood flow increase activity were respectively measured according to the following Methods 1 and 2.
# (§4) The same Magnus method was used as in Experimental Example 1, except that instead of 1×10^-7 M (final concentration) U-46619, 5×10^-6 M (final concentration), PGF2 α or 60 mM potassium chloride was used.
# [4] = Acute toxicity test, oral, mice; conditions: mouse, in vivo, ICR male mice, 14 days observation
# Protocol: An acute toxicity test on compounds of the present invention was performed according to the following method.
# ICR male mice were purchased at 4 weeks of age and fed for 10 days before testing. The test compound suspended in 1% methylcellullose solution was orally administered using a metallic gaster probe at a dose of 0.1 ml (as the test compound) per […] of body weight. The mice were fasted for 15 hours before the administration. Observation was made for 14 days after the administration, and the LD50 value was determined from the survival rate by the Richfield Wilcoxin method.
# [5] = tested on: basilar artery; assay: Vasodilative activity, Magnus method, dog basilar artery ring contracted with U-46619; conditions: for pIC50: Canis lupus familiaris, U-46619 1×10^-7 M, read-out: 50% Contraction-inhibitive Concentrations; for vasodilative activity, times stronger than trapidil: U-46619, relative to trapidil
# Protocol: (§5) Vasodilative activity of the compound of the present invention was measured by the Magnus method.
# as §1, §2
# [6] = tested on: coronary artery; assay: Vasodilative activity, Magnus method, dog coronary artery contracted with potassium chloride; conditions: Canis lupus familiaris; 60 mM potassium chloride; read-out: 50% Contraction-inhibitive Concentrations, Coronary Artery, KCl
# Protocol: as §1, §2, §3, §4
# [7] = tested on: basilar artery; assay: Vasodilative activity, Magnus method, dog basilar artery contracted with PGF2 α; conditions: Canis lupus familiaris; PGF2 α 5×10^-6 M; read-out: 50% Contraction-inhibitive Concentrations, Basilar Artery, PGF2 α
# Protocol: as §1, §2, §3, §4
# [8] = tested on: coronary blood flow; assay: Coronary blood flow increase activity in anesthetized dog; format: in vivo; conditions: maximum flow relative to before administration
# Source text: as §3
# The heart was exposed by an incision into pericardium through the left quartus costa rib. About 1 cm of a coronary vessel was peeled off from the surrounding tissues at about 1 cm from the left ramus circumplexus and a blood flow meter probe was installed for measuring the coronary blood flow. Left ventricle pressure, heart rate, right femoral artery pressure, and lower extremity blood flow rate were monitored. All test compounds were intravenously administered.
# The maximum coronary blood flow rates achieved after the administration as a percentage of the blood flow before administration was taken as the coronary blood flow increase activity.
# [9] = tested on: coronary artery; assay: Vasodilative activity, Magnus method, dog coronary artery contracted with PGF2 α; conditions: Canis lupus familiaris; PGF2 α 5×10^-6 M; read-out: 50% Contraction-inhibitive Concentrations, Coronary Artery, PGF2 α
# Protocol: as §1, §2, §3, §4
# [10] = tested on: coronary artery; assay: Vasodilative activity, Magnus method, dog coronary artery ring contracted with U-46619; conditions: for pIC50: Canis lupus familiaris, U-46619 1×10^-7 M, read-out: 50% Contraction-inhibitive Concentrations; for vasodilative activity, times stronger than trapidil: U-46619, relative to trapidil
# Protocol: as §5, §1, §2
SMILES,pIC50 [1],"Ratio of Effectiveness, ACh Contraction [1]",pIC50 [2],"Ratio of Effectiveness, His Contraction [2]",pIC50 [3],LD50 at 336 h [4],pIC50 [5],"vasodilative activity, times stronger than trapidil [5]",pIC50 [6],pIC50 [7],"Rate of Coronary Blood Flow Increase, 50 μg/kg (iv) [8]","Rate of Coronary Blood Flow Increase, 100 μg/kg (iv) [8]",pIC50 [9],pIC50 [10],"vasodilative activity, times stronger than trapidil [10]"
"Cc1nc2c(C#N)cnn2c2c1CCN2C(C)(C)C [Compound No. 1, 8-tert-butyl-3-cyano-6,7-dihydro-5-methyl-8H-pyrrolo[3,2-e]pyrazolo[1,5-a]pyrimidine]",6.70,25.0,5.89,4.9,< 4.00,≥ 2000 mg/kg,5.57,37 times,< 4.00,5.80,51.9 ± 11.9%,181.6 ± 27.8%,5.89,5.80,39 times
"Cc1nc2c(C#N)c(C)nn2c2c1CCN2C(C)(C)C [Compound No. 2, 8-tert-butyl-3-cyano-6,7-dihydro-2,5-dimethyl-8H-pyrrolo[3,2-e]pyrazolo[1,5-a]pyrimidine]",,,,,,≥ 2000 mg/kg,5.57,37 times,,,,,,5.74,35 times
"CCCCN1CCc2c(C)nc3c(C#N)cnn3c21 [Compound No. 3, 8-butyl-3-cyano-6,7-dihydro-5-methyl-8H-pyrrolo [3,2-e]pyrazolo[1,5-a]pyrimidine]",,,4.52,2.1,4.47,≥ 1000 mg/kg,,,< 4.00,< 4.00,11.5 ± 4.6%,37.9 ± 16.3%,< 4.00,,
"Cc1nc2c(C#N)cnn2c2c1CCN2CC(C)C [Compound No. 4, 8-iso-butyl-3-cyano-6,7-dihydro-5-methyl-8H-pyrrolo [3,2-e]pyrazolo[1,5-a]pyrimidine]",,,,,4.37,≥ 1000 mg/kg,,,4.00,< 4.00,20.4 ± 6.3%,52.8 ± 21.1%,4.60,,
"CCC(C)N1CCc2c(C)nc3c(C#N)cnn3c21 (centres unmarked) [Compound No. 5, 8-sec-butyl-3-cyano-6,7-dihydro-5-methyl-8H-pyrrolo [3,2-e]pyrazolo[1,5-a]pyrimidine]",6.30,10.0,6.40,15.8,< 4.00,≥ 1000 mg/kg,,,< 4.00,5.60,8.2 ± 3.7%,27.3 ± 5.2%,5.49,,
"CCCCCN1CCc2c(C)nc3c(C#N)cnn3c21 [Compound No. 6, 3-cyano-6,7-dihydro-5-methyl-8-pentyl-8H-pyrrolo [3,2-e]pyrazolo[1,5-a]pyrimidine]",5.49,1.6,4.80,0.4,< 4.00,≥ 1000 mg/kg,,,< 4.00,< 4.00,7.3 ± 3.1%,15.4 ± 5.7%,< 4.00,,
"CCCCCCN1CCc2c(C)nc3c(C#N)cnn3c21 [Compound No. 7, 3-cyano-6,7-dihydro-8-hexyl-5-methyl-8H-pyrrolo [3,2-e]pyrazolo[1,5-a]pyrimidine]",5.20,0.8,4.89,0.5,4.07,≥ 1000 mg/kg,,,< 4.00,< 4.00,,,< 4.00,,
"Cc1nc2c(C#N)cnn2c2c1CCN2C1CCCC1 [Compound No. 8, 3-cyano-8-cyclopentyl-6,7-dihydro-5-methyl-8H-pyrrolo [3,2-e]pyrazolo[1,5-a]pyrimidine]",6.89,38.5,6.00,6.3,< 4.00,≥ 1000 mg/kg,,,< 4.00,< 4.00,,,6.70,,
"Cc1nc2c(C#N)cnn2c2c1CCN2CC1CCCCC1 [Compound No. 9, 3-cyano-8-cyclohexylmethyl-6,7-dihydro-5-methyl-8H-pyrrolo[3,2-e]pyrazolo[1,5-a]pyrimidine]",6.10,6.3,,,< 4.00,≥ 1000 mg/kg,,,< 4.00,< 4.00,,,< 4.00,,
"Cc1nc2c(C#N)cnn2c2c1CCN2N1CCOCC1 [Compound No. 10, 3-cyano-6,7-dihydro-5-methyl-8-(4-morpholyl)-8H-pyrrolo[3,2-e]yrazolo[1,5-a]pyrimidine]",5.89,3.9,5.30,1.3,< 4.00,≥ 1000 mg/kg,,,< 4.00,< 4.00,,,< 4.00,,
"Cc1nc2ccnn2c2c1CCN2C(C)(C)C [Compound No. 11, 8-tert-butyl-6,7-dihydro-5-methyl-8H-pyrrolo[3,2-e]pyrazolo[1,5-a]pyrimidine]",,,5.20,1.0,5.00,≥ 1000 mg/kg,,,4.80,5.10,,,5.49,,
"Cn1c(=O)c2[nH]cnc2n(C)c1=O [Theophylline, reference compound]",5.30,,5.20,,,,,,,,,,,,

# From US4992442A, “Pyrrolo(3,2-e)pyrazolo(1,5-a)pyrimidine derivative and medicine comprising the same” (Pola Chemical Industries Inc., Japan, priority 1988, dated 1991)
